Assay results taken from patent US11407792B2, “Regulating electron flow using fragmented proteins” (WILLIAM MARSH RICE UNIVERSITY, priority 2017, dated 2022).

B1: SIR: Zea mays Fd-dependent sulfite reductase, electron acceptor (protein, UniProt O23813 51-635, looked up)
Sulfite reductase …: VSAPAKKDASEVKRSKVEIIKEKSNFLRYPLNEELVSEAPNINESAVQLIKFHGSYQQTDRDVRGQKNYSFMLRTKNPCGKVPNQLYLAMDTLADEFGIGTLRLTTRQTFQLHGVLKKNLKTVLSTVIKNMGSTLGACGDLNRNVLAPAAPYVKKDILFAQQTAENIAALLTPQSGAYYDLWVDGEKIMSAEEPPEVTKARNDNSHGTNFPDSPEPIYGTQYLPRKFKVAVTAAGDNSVDILTNDIGVVVVSDDAGEPIGFNIYVGGGMGRTHRVETTFPRLADPLGYVPKEDILYAIKAIVVTQRENGRRDDRKYSRMKYMIDRWGIDRFRAEVEKYYGKKFESFRPLPEWQFNSYLGWQEQGDGKLFYGVHVDNGRVGGQAKKTLREIIEKYNLDVSITPNQNLILCGIDQAWREPITTALAQAGLLEPKDVDPLNLTAMACPALPLCPLAQTEAERGILPILKRIRAVFNKVGIKDSESVVVRITGCPNGCARPYMAELGFVGDGPKSYQIWLGGTPNQSTLAESFMDKVKLDDIEKVLEPLFTYWNGTRQEGESFGSFTNRTGFDKLKEVVNKWAESPSAA

Key:
sFd-35-ER = assay: Complementation of E. coli EW11 growth by sFd-35-ER with 4-HT and other estrogen receptor modulators; format: cell-based, Escherichia coli; details: for Activation of sFd-35-ER ET (growth complementation): agonists, antagonists and an endocrine disruptor; for Effect of estrogen receptor modulators on complementation of E. coli EW11 by sFd-35-ER, compared to DMSO alone: modulator 50 μM, 200 ng/mL aTc
Protocol: Growth assay. For all growth experiments, E. coli EW11 were freshly transformed with two plasmids, one encoding the e-donor and acceptor pair (FNR and SIR) and the other encoding either a native Fd, a C42A mutant of Ml Fd that is unable to coordinate a 2Fe-2S cluster, or an engineered Fd. Starter cultures were inoculated using single colonies obtained by selecting for colonies containing both plasmids on LB-agar plates. These starter cultures were grown in deep-well 96-well plates for 18 hours at 37° C. in 1 mL of a non-selective modified M9 medium (M9c), which contained sodium phosphate, dibasic (6.8 g/L), sodium phosphate, monobasic (3 g/L), sodium chloride (0.5 g/L), ammonium chloride (1 g/L), calcium chloride (0.1 mM), magnesium sulfate (10 mM), ferric citrate (24 mg/L), p-aminobenzoic acid (2 mg/L), inositol (20 mg/L), adenine (5 mg/L), uracil (20 mg/L), tryptophan (40 mg/L), tyrosine (1.2 mg/L), and the remaining 18 amino acids (80 mg/L each). For auxotroph complementation analysis, starter cultures that had been grown to stationary phase in M9c were diluted ˜1:100 using a 96-well replicator pin into 100 μL of a selective modified M9 medium (M9sa), which is identical to M9c but lacks cysteine and methionine. […] Optical density (OD) measurements were taken every 10 minutes. To select for the Fd and e-donor/acceptor plasmids, all growth steps included chloramphenicol and streptomycin at 34 μg/mL and 100 μg/mL, respectively.
To test whether this domain-insertion strategy can be used to diversify the chemical regulation of sFd-35, the ligand-binding domain (LBD) of the human estrogen receptor (ER) was inserted after residue 35 to create sFd-35-ER (FIG. 26E).
The activity of sFd-35-ER was evaluated by expressing this protein using an aTc-inducible promoter (FIG. 31B). […] This protein was also expressed as a fusion to RFP (sFd-35-ER-RFP) to evaluate how 4-HT affects protein expression.
To evaluate how these different modulators affect sFd-35-ER ET, sFd-35-ER growth complementation was evaluated in the presence of agonists, antagonists, and an endocrine disruptor (FIG. 32D).

[1] = Hirasawa et al., 2004; cited from earlier work

Molecule | Activation of sFd-35-ER ET (growth complementation) (sFd-35-ER) | Effect of estrogen receptor modulators on complementation of E. coli EW11 by sFd-35-ER, compared to DMSO alone (sFd-35-ER) | [4Fe-4S] E° [1] [mV] | siroheme potential [1] [mV]
CC[C@H](c1ccc(O)cc1)[C@@H](CC)c1ccc(O)cc1 [hexestrol] | not activated | do not significantly enhance growth |  | 
Oc1ccc2c(c1)CC[C@H](c1ccccc1)[C@@H]2c1ccc(OCCN2CCCC2)cc1 [lasoxifene] | activated | significantly enhance growth |  | 
CC(C)(c1ccc(O)cc1)c1ccc(O)cc1 [bisphenol-A] | activated | significantly enhance growth |  | 
B1 |  |  | −415 | −285
